Laboratory results taken from PubChem BioAssay (NCI).
“And” between values parts separate entries of the source, which are not always exact repeats. Identical values can stand only once.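 A five-concentration, 48-hour dose response in 96-well plates underlies each endpoint, interpolated linearly between surrounding concentrations. GI50: concentration for 50% inhibition of growth. TGI marks complete inhibition of growth.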

Tested on: MDA-MB-468 breast
Test: NCI anticancer screen, dose series, 48 h

Compound | GI50 | TGI
O=S(=O)(NCCNc1nccc(-c2c(-c3cccc(O)c3)nc3sccn23)n1)c1ccc(F)cc1 | 2.62 µM | 24.2 µM
CCN1CCC[C@H]1c1cc(O)c2c(c1OC)C[C@H]1C[C@H]3[C@H](N)C(=O)C(C(N)=O)=C(O)[C@@]3(O)C(=O)C1=C2O | 0.0446 µM | 0.717 µM
c1cncc(CNc2ccccc2-c2nnc(Nc3ccc4c(c3)OCO4)o2)c1 | 0.153 µM | > 100 µM
N#Cc1ccc(Oc2nccc(-c3c(-c4ccc(F)cc4)ncn3C3CCNCC3)n2)cc1 | 5.91 µM | > 25 µM
Oc1nc(NCCc2ccccc2)sc1/C=C1\C=Nc2ncccc21 | 1.51 µM and 2.05 µM | 3.6 µM and 6.37 µM
Cc1cccc(CN(C)c2ccc(CO)c(Cl)c2)c1 | 0.0572 µM | 0.176 µM
CN(C)CC(C(=O)c1ccccc1)c1ccccc1 (centres undefined) | 0.95 µM | 2.63 µM
CC(C)=CC/C=C(/C)[C@H]1CC[C@]2(C)[C@@H]1CC[C@@H]1[C@@]3(C)CCC(=O)NC(C)(C)[C@@H]3CC[C@]12C | 16.5 µM | 34.2 µM
N/C(=N\O)c1ncc(-c2ccc(C(F)(F)F)cc2)c(NC2CCCCCC2)n1 | 8.27 µM and 3.63 µM | 17.9 µM
O=C1Cc2cc(CCn3ccnc3)c(Cl)cc2N1 | 2.74 µM | 11.3 µM
Cn1cc(-c2csc(-c3c[nH]c4ncccc34)n2)c2cc(Br)cnc21 | 0.812 µM | 56.7 µM
CCNC(=O)Oc1ccc(/C(=C(/C)c2ccccc2)c2ccc(OCCN3CCCCCC3)cc2)cc1 | 2.06 µM | 5.63 µM
CCCCCCN(CCCCCC)CCCNc1nccc2ccccc12 | 1.34 µM | 2.91 µM
COc1cc(CNC(=O)/C=C/C=C/c2ccc3c(c2)OCO3)ccc1OCc1cn(-c2ccc(Cl)c(Cl)c2)nn1 | 0.788 µM | 2.46 µM
CCCc1cc(=O)oc2c(C(=O)CC(C)C)c(O)c(CC=C(C)C)c(O)c12 | 3.72 µM | 27 µM
CCc1nn2c(C)cc(C)nc2c1Cc1ccc(/C=C/CN2CCN(CCOCCOCCN3CCN(C/C=C/c4ccc(Cc5c(CC)nn6c(C)cc(C)nc56)cc4)CC3)CC2)cc1 | 1.79 µM | 3.81 µM
CCN1CCN(CCOc2ccc(CNc3ccc4nc(CCC5CCCCC5)[nH]c4c3)cc2)CC1 | 1.67 µM | 4.11 µM
COc1cc2c(cc1OC)C(CCc1ccc(Cl)cc1)N(C)CC2 (centres undefined) | 16.3 µM | 38.1 µM
Nc1nc(N)c2cc(CNc3ccc(Cl)c(Cl)c3)ccc2n1 | 0.903 µM | 2.19 µM

Compound | GI50 | TGI
O=C1NC(=NCc2cccs2)SC1Cc1ccc2ncccc2c1 (centres undefined) | 11.8 µM | > 25 µM
CCOc1ccc(Cc2nccc3cc(OCC)c(OCC)cc23)cc1OCC | 2.29 µM | 18.3 µM
O=C1NC(=NCC(CO)c2ccccc2)S/C1=C\c1ccc2ncccc2c1 (centres undefined) | 8.8 µM | > 25 µM
C=CCN1C(=O)/C(=c2\sc3n(c2=O)C2C(NN=3)N(CC)C(=O)N2CC)c2ccccc21 (centres undefined) | 0.293 µM | 3.75 µM
CSc1ccc2c(c1)c(CCN)c(C)n2Cc1ccc(Cl)c(Cl)c1 | 1.78 µM | 3.47 µM
O=C(Nc1cccc(Cl)c1)Nc1cccc(Cl)c1 | 0.0456 µM | 43.6 µM
O=C1C2=C(C(=O)c3c(O)ccc(O)c31)N(c1ccc(N3CCOCC3)nc1)Cc1ccccc1O2 | 0.217 µM | 0.516 µM
Fc1ccc(-c2nc(-c3nc4ccc(Cl)cc4[nH]3)cc3c2[nH]c2ccccc23)cc1 | 2.43 µM | 11.5 µM
COc1ccc(CN2c3ccccc3Sc3ccccc32)cc1F | 0.309 µM | 53.4 µM
C=C1C(=O)O[C@@H]2C[C@@H](C)/C=C\C(=O)[C@](C)(OC(C)=O)C[C@H](OC(=O)/C(C)=C\C)[C@@H]12 | 1.01 µM | 5.08 µM
COc1cc(/C=C/C(=O)C(=Cc2ccc(F)c(F)c2)C(=O)/C=C/c2ccc(O)c(OC)c2)ccc1O | 1.7 µM | 3.47 µM
Cc1ccc(/C=C(\C#N)n2nnc3cc(Cl)c(Cl)cc32)cc1 | 2.4 µM | 6.65 µM
O=C(CCCn1c2c(sc3ncccc32)c(=O)n2nnc(-c3ccccc3)c12)NCCc1cnc[nH]1 | 8.06 µM | 27.4 µM
COC(=O)[C@]12CC[C@@H](C)[C@H](C)[C@@H]1C1=CC[C@@H]3[C@@]4(C)C[C@@H](OC(=O)c5ccco5)[C@H](O)[C@@](C)(CO)[C@@H]4[C@H](O)C[C@@]3(C)[C@]1(C)CC2 | 2.34 µM | 6.54 µM
CCCNc1nc(N(C)O)nc(N(C)O)n1 | 2.75 µM | > 70.7 µM
CC/C(=N\Nc1nc2ccccc2n1C)c1ccccn1 | 0.0284 µM | 0.207 µM
C=C1CC[C@@H]2C(C)(C)[C@@H](O)CC[C@@]2(C)[C@@H]1COc1ccc2ccc(=O)oc2c1 | 6.36 µM | 25.9 µM
O=C(N[C@H](c1ccc(Cl)c(Cl)c1)C1CNC1)c1ccc2cnccc2c1 | 1.85 µM | 10.4 µM
